# Measured values as given in patent US20130237485A1, “Methods and Agents for Enhancing Wound Healing” (UNIVERSITY OF SOUTHERN CALIFORNIA, priority 2010, published 2013).
# Key:
# [1] = system: RDEB keratinocytes; test: Immunoblot (anti-NC1 antibody) for full-length C7 in RDEB keratinocytes treated with aminoglycosides; format: cell-based, human; details: for read-through / full-length C7 production: 48 h, G418 8 μg/mL, gentamicin 200 μg/mL, paromomycin 200 μg/mL, amikacin 1 mg/mL, PTC 124 20 μg/mL, EB5K and DG16 keratinocytes, FIG. 1; for sustained C7 production: G418 8 μg/mL or gentamicin 200 μg/mL, lysed at 3, 5, or 8 days following treatment, FIG. 3; for dose dependence of full-length C7 production: varying concentrations, EB5K and DG16 lines, FIG. 2
# Experimental: RDEB keratinocytes were treated for 48 h with either G418 (8 μg/mL), gentamicin (200 μg/mL), paromomcyin (200 μg/mL), amikacin (1 mg/mL), or PTC 124 (20 μg/mL). Cells were subsequently lysed and subjected to immunoblot analysis with anti-NC1 antibody or anti-β-tubulin antibody (loading control).
# RDEB keratinocytes were treated with varying concentrations of G418 and Gentamicin. Cells were lysed and subjected to immunoblot analysis with an anti-NC1 or anti-β-tubulin antibody (loading control).
# EB5K and D016 keratinocytes were treated with G418 (8 μg/mL) or gentamicin (200 μg/mL). Cells were lysed at 3, 5, or 8 days following treatment and subjected to immunoblot analysis with an anti-NC1 or anti-β-tubulin antibody.
# [2] = system: EB5K and DG16 keratinocytes; test: Colloidal gold salt migration assay using collagen I as a matrix; format: cell-based; details: G418 8 μg/mL or gentamicin 200 μg/mL for 48 h; compared with normal human keratinocytes (IKC); FIG. 5
# Experimental: In FIG. 5A, keratinocytes were either untreated or treated with G418 (8 μg/mL) or gentamicin (200 μg/mL) for 48 h and then subjected to colloidal gold salt migration assay using collagen I as a matrix. Representative fields were photographed at 40× under dark field optics. In FIG. 5B, migration index expresses the percentage of the total field area consumed by the migration tracks. Error bars, SD of three different experiments.
# [3] = system: DG16 and EB5K keratinocytes; test: Immunofluorescence staining for C7 with polyclonal anti-NC1 antibody; format: cell-based, human; details: G418 8 μg/mL or gentamicin 200 μg/mL, FIG. 4
# Description: Normal human keratinocytes (IKC) were stained in parallel. […] In contrast, untreated parent keratinocytes entirely lacked C7expression.
# [4] = system: Human epithelial (293 cells) transfected with nonsense mutation constructs; test: Immunoblot (anti-NC1 antibody) of 293 cells transfected with COL7A1 nonsense mutation constructs; format: cell-based; details: 293 cells with mutant constructs; for PTC read-through and full-length C7 production: G418 8 μg/mL or gentamicin 200 μg/mL for 48 h, FIG. 7
# Experimental: For experimentation with cells containing different nonsense mutation in the COL7A1 gene, we used a C7 expression vector to introduce 30 nonsense mutations associated with RDEB via site-directed mutagenesis.
# Human epithelial (293 cells) transfected with nonsense mutation constructs were treated with (FIG. 7A) G418 (8 μg/mL) and (FIG. 7B) gentamicin (200 μg/mL) for 48 h, lysed, and subjected to immunoblot analysis with an anti-NC1 antibody or anti-β-tubulin antibody (loading control).
# In FIG. 8B, 293 cells transfected with the indicated mutant constructs were either untreated or treated with G418 (8 μg/mL) for 48 h, lysed and subjected to immunoblot analysis using an anti-NC1 antibody or anti-β-tubulin antibody (loading control).
Molecule,read-through / full-length C7 production [1],sustained C7 production [1],dose dependence of full-length C7 production [1],keratinocyte hypermotility (migration index) [2],C7 staining (immunofluorescence) [3],PTC read-through and full-length C7 production [4],"levels of truncated and full-length C7 production compared to untreated cells ([4]; G418 8 μg/mL for 48 h, FIG. 8B)"
"NC[C@@H]1O[C@H](O[C@H]2[C@@H](O)[C@H](O[C@@H]3[C@@H](O)[C@H](N)C[C@H](N)[C@H]3O[C@H]3O[C@H](CO)[C@@H](O)[C@H](O)[C@H]3N)O[C@@H]2CO)[C@H](N)[C@@H](O)[C@@H]1O [Paromomycin, paromomycin]",induced read-through in DG16 cells only,,,,,,
"NCC[C@H](O)C(=O)N[C@@H]1C[C@H](N)[C@@H](O[C@H]2O[C@H](CN)[C@@H](O)[C@H](O)[C@H]2O)[C@H](O)[C@H]1O[C@H]1O[C@H](CO)[C@@H](O)[C@H](N)[C@H]1O [Amikacin, amikacin]",did not cause read-through in either keratinocyte line,,,,,,
"O=C(O)c1cccc(-c2noc(-c3ccccc3F)n2)c1 [PTC124, PTC 124]",did not cause read-through in either keratinocyte line,,,,,,
gentamicin,induced full-length C7 production in both EB5K and DG16 keratinocytes,induced sustained C7 production,induced full-length C7 production in a dose-dependent manner in both EB5K and DG16 lines,reversed their hypermotility phenotype to normal,demonstrated C7 staining,induced PTC read-through and full-length C7 production,
CN[C@@H]1[C@@H](O)[C@@H](O[C@@H]2[C@@H](O)[C@H](O[C@H]3O[C@H]([C@@H](C)O)[C@@H](O)[C@H](O)[C@H]3N)[C@@H](N)C[C@H]2N)OC[C@]1(C)O [G418],induced full-length C7 production in both EB5K and DG16 keratinocytes,induced sustained C7 production,induced full-length C7 production in a dose-dependent manner in both EB5K and DG16 lines,reversed their hypermotility phenotype to normal,demonstrated C7 staining,induced PTC read-through and full-length C7 production,significantly higher levels of truncated and full-length C7 production
